Test results taken from paper doi:10.1101/2025.04.09.647920v1, “TIR immune signaling is blocked by phosphorylation to maintain growth in plants and animals” (biorxiv, 2025).

Molecular target: T1, RBA1 (Arabidopsis thaliana, UniProt F4HT77)
T1 construct: TIR-only protein, recombinant from insect cells
T1 sequence (F4HT77 1-363): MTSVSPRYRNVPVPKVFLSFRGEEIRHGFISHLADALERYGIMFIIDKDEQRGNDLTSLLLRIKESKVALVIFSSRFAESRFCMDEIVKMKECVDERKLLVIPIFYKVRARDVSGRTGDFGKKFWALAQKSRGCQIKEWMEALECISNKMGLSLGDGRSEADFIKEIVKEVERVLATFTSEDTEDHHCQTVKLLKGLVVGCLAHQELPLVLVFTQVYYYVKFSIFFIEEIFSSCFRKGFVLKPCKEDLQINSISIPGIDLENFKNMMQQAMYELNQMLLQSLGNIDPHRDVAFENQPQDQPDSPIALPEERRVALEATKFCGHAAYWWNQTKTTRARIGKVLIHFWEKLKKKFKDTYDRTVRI
Experiment: LC-MS/MS NADase assay
Type: biochemical
Conditions: in vitro

SMILES: NC(=O)c1ccc[n+]([C@@H]2O[C@H](COP(=O)(O)OP(=O)(O)OC[C@H]3O[C@@H](n4cnc5c(N)ncnc54)[C@H](O)[C@@H]3O)[C@@H](O)[C@H]2O)c1 [NAD^+]
- LC-MS/MS NADase assay: Recombinant RBA1 protein purified from insect cells cleaved NAD^+ into nicotinamide (Nam)
